This is an account of results in article PMC10507085, “Pharmacological inhibition of TBK1/IKKε blunts immunopathology in a murine model of SARS-CoV-2 infection” (Nature Communications, 2023).

Among the targets are ROCK1 (Homo sapiens, UniProt Q13464); AURKA (Homo sapiens, UniProt O14965); MAP3K5 (Homo sapiens, UniProt Q99683); RIPK4 (Homo sapiens, UniProt P57078); SGK2 (Homo sapiens, UniProt Q9HBY8); TRPM6 (Homo sapiens, UniProt Q9BX84); CDK18 (Homo sapiens, UniProt Q07002); RIOK3 (Homo sapiens, UniProt O14730); LIMK1 (Homo sapiens, UniProt P53667); MTOR (Homo sapiens, UniProt P42345); CAMK2B (Homo sapiens, UniProt Q13554); IKBKB (Homo sapiens, UniProt O14920); CDKL5 (Homo sapiens, UniProt O76039); KIT-autoinhibited (Homo sapiens, UniProt P10721); RPS6KB1 (Homo sapiens, UniProt P23443); DAPK2 (Homo sapiens, UniProt Q9UIK4); ZAP70 (Homo sapiens, UniProt P43403); EPHA6 (Homo sapiens, UniProt Q9UF33); BMP2K (Homo sapiens, UniProt Q9NSY1).

Common to all, as to assay: biochemical
Parameters in all cases: KINOMEscan competition binding, DNA-tagged kinase against immobilised ligand, qPCR read-out
Holding throughout (settings): read-out: Percent Control
(In general: Quantitative PCR measures a nucleic acid by following its amplification.)

Assay [1] addresses T1, RSK2(Kin.Dom.2-C-terminal) (Homo sapiens, UniProt P51812).
T1 construct: gene RPS6KA3; Kin.Dom.2 C-terminal

Chain of DAPK2 (Q9UIK4 whole entry): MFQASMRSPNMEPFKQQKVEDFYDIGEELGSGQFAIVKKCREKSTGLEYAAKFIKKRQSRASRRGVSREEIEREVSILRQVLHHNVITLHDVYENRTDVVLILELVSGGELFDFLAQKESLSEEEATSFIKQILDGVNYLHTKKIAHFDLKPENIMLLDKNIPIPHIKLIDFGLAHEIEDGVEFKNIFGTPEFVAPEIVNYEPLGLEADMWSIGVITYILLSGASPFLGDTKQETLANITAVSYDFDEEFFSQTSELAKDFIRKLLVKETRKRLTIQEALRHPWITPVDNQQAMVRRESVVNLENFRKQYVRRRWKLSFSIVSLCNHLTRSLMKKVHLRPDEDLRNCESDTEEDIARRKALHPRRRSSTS
Chain of AURKA (O14965 whole entry): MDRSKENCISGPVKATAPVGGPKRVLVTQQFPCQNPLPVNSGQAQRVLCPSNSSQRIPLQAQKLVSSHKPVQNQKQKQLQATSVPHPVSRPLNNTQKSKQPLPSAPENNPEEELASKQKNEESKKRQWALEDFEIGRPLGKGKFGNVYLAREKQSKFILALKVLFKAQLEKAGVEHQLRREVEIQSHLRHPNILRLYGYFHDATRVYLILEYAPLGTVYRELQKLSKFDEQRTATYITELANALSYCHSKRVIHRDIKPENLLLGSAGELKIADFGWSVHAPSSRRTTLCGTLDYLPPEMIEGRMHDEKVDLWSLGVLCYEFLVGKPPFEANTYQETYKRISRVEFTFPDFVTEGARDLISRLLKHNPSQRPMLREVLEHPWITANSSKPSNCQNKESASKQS
Chain of KIT-autoinhibited (P10721 whole entry): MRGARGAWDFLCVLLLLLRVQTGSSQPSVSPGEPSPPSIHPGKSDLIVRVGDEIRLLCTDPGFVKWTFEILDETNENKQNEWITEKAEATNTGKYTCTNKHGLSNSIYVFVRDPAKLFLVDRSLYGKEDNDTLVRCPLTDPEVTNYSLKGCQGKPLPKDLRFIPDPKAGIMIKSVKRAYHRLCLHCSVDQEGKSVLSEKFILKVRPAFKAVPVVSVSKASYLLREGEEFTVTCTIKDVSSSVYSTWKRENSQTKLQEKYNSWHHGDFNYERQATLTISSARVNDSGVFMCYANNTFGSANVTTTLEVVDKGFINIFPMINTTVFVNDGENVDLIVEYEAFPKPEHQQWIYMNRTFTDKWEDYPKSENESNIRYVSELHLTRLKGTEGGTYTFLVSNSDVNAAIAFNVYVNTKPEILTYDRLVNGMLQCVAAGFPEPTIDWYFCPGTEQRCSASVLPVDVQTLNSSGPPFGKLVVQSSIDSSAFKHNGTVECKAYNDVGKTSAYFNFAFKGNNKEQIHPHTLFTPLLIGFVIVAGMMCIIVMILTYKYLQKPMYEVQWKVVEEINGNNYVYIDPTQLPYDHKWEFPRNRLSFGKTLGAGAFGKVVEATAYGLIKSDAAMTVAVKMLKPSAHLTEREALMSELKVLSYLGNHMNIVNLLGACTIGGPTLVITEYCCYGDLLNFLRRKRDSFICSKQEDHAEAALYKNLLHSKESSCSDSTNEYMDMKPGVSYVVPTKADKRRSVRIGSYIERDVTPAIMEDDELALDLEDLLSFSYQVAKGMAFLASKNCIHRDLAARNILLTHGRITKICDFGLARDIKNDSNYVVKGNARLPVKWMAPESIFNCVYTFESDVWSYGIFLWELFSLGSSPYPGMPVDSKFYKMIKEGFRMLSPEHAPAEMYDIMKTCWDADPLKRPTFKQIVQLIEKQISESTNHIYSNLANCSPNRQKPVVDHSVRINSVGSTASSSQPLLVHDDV
Chain of ZAP70 (P43403 whole entry): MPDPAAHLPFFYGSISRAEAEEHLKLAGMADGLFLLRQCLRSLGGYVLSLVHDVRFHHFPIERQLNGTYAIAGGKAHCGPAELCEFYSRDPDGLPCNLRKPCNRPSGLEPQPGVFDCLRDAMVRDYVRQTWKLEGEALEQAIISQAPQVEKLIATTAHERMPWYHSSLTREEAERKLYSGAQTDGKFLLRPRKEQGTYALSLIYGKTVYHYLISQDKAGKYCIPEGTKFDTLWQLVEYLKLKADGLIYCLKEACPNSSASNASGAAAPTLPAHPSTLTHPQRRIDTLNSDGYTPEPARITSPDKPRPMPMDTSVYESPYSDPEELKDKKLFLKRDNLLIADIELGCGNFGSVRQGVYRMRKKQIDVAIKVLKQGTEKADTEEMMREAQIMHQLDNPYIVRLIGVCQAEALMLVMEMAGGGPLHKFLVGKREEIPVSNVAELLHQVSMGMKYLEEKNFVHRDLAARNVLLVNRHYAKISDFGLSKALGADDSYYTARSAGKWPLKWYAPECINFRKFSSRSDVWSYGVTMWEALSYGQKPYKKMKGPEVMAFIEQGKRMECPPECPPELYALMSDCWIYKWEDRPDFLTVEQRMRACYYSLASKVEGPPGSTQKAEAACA
Chain of RIOK3 (O14730 whole entry): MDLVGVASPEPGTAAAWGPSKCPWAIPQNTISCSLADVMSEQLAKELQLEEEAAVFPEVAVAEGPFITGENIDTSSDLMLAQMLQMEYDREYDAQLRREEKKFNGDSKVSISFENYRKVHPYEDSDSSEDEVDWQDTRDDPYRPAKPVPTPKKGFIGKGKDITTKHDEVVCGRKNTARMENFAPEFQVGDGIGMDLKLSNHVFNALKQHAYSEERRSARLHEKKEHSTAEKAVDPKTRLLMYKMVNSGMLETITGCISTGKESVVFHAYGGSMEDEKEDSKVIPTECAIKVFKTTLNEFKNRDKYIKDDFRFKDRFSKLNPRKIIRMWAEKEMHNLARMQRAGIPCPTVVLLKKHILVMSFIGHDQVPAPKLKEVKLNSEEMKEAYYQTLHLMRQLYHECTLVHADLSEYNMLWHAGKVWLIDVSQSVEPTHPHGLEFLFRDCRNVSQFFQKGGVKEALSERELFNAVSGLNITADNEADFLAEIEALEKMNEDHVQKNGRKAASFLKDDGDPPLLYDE
Chain of ROCK1 (Q13464 whole entry): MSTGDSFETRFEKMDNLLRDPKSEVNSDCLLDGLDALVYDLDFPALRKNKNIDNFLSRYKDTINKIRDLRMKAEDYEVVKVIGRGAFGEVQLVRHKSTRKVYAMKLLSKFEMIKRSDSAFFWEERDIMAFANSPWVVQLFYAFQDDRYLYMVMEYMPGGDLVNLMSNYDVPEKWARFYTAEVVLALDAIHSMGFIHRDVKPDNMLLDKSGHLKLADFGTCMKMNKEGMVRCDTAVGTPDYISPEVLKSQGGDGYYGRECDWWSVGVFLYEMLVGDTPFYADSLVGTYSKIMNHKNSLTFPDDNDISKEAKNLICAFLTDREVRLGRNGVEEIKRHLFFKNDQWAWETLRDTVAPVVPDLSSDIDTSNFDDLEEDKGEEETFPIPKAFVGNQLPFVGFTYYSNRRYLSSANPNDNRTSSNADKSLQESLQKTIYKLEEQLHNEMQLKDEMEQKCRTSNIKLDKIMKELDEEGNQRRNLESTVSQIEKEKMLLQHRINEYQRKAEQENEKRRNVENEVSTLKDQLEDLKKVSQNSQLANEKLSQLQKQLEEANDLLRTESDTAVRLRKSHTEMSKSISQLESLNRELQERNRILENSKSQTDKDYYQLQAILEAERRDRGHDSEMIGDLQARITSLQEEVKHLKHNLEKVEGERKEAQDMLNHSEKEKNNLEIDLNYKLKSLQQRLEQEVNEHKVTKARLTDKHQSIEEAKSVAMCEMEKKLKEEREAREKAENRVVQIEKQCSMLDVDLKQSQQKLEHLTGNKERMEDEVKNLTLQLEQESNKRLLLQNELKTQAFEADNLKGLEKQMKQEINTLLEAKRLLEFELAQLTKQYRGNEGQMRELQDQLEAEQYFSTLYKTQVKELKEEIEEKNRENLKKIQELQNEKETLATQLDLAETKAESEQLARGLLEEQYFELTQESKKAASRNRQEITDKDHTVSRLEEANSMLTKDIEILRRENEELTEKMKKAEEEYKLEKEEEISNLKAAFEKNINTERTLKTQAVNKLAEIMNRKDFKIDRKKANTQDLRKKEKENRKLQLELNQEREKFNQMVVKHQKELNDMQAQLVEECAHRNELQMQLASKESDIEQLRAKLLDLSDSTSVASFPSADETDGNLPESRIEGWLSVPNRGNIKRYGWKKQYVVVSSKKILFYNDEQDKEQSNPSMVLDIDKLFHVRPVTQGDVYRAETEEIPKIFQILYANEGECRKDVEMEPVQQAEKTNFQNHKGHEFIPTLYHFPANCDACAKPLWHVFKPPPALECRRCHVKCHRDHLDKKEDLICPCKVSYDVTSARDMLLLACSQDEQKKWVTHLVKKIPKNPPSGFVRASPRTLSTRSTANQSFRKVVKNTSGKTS
Chain of RPS6KB1 (P23443 whole entry): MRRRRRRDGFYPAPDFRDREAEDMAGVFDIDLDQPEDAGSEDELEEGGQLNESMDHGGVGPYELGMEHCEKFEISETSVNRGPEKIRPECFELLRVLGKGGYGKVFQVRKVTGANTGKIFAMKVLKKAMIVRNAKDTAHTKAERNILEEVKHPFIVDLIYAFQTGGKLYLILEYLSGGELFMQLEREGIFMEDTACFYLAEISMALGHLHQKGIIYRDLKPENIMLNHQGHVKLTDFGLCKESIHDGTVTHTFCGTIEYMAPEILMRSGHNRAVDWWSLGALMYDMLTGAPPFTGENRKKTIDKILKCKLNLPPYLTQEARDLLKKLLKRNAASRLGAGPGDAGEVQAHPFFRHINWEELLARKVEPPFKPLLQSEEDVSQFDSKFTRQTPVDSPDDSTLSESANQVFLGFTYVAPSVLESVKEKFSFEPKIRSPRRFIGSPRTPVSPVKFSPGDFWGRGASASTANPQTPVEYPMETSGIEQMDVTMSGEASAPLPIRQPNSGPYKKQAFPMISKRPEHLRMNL

As for `Oc1ccc(C2=Cc3ccc(O)cc3OC2)cc1` [compound 1, idronoxil], the remaining binding at 10 µM at ROCK1 amounted to 85%; on AURKA it was 92%; at MAP3K5, 92%; on RIPK4, 73%; at SGK2, 95%; at TRPM6 it was 88%. In addition, the remaining binding at 10 µM on CDK18 amounted to 71%; at RIOK3 it was 100%; at LIMK1 it was 89%; on MTOR, 73%; at CAMK2B, 83%; at IKBKB, 73%. Further, the remaining binding at 10 µM at CDKL5 amounted to 97%; at KIT-autoinhibited it was 60%; on RPS6KB1, 84%; on DAPK2, 56%; at ZAP70, 78%; on EPHA6, 99%. Besides, the remaining binding at 10 µM on BMP2K was determined as 86%; in assay [1], 95%.
